Common to all, as to assay: NCI-60 cell line screen, 48 h
Test [1] relates to LOX IMVI melanoma.
Test [2] concerns COLO 205 colon.
The test system of test [3] is SNB-75 CNS.
The subject of test [4] is UACC-62 melanoma.
The subject of test [5] is 786-0 renal.
Test [6] concerns DU-145 prostate.
Test [7] deals with NCI-H460 lung.
Test [8] has as its system HOP-62 NSCLC.
Test [9] concerns HCC-2998 colon.
Test [10] has as its system HCT-116 colon.

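How tested: cells in 96-well plates exposed to compound for 48 hours at five concentrations. Here, GI50 denotes the concentration required for 50% inhibition of growth. TGI: total growth inhibition.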

As to `C#CCNC(=O)NC(CCCCNC(=O)OCc1ccccc1)C(=O)OCc1ccccc1` (configuration not stated), the TGI was over 88.4 µM in [1]; 46.9 µM in [2]; 37.3 µM in test [3]; 33.6 µM in test [4]; over 100 µM in [5]; over 100 µM in test [6]. For the same molecule, the TGI in test [7] was over 100 µM; in test [8] it was over 100 µM; in test [9], over 74.1 µM; in test [10], over 100 µM.

In the case of `N#Cc1cccc(Nc2ncc(-c3ccccc3)o2)c1`, the GI50 in test [1] is 9.47 µM; in test [2], 14.8 µM; in test [3], 10.8 µM; in test [4], 13.1 µM; in test [5] it was 12.9 µM; in test [6], 16 µM. The GI50 in test [7] was 11.3 µM; in test [8] it was 6.69 µM; in test [9], over 23.7 µM; in test [10], 9.02 µM. In addition, the TGI in [1] was over 25 µM; in [2], over 25 µM; in test [3], over 22.6 µM; in [4], over 25 µM; in test [5], over 25 µM; in [6], over 25 µM. Also, the TGI was over 25 µM in test [7], over 17.8 µM in test [8], over 25 µM in [9] and over 25 µM in [10].

Turning to `N#Cc1c(NC(=O)c2ccccc2F)sc2c1CCCC2`, the GI50 is over 25 µM in [1]; 22.2 µM in test [2]; over 21.7 µM in test [3]; 18.1 µM in test [4]; over 25 µM in [5]; over 25 µM in [6]. The GI50 in test [7] is over 19.5 µM; in test [8], over 25 µM; in test [9] it was 13.4 µM; in test [10], over 25 µM. Further, the TGI in [1], in test [2], in [3], in test [4], in test [5] and in test [6] was over 25 µM in each case. Besides, the TGI in test [7], in [8], in test [9] and in [10] was over 25 µM in each case.

Regarding `O=S(=O)(O)c1ccc2cc3nn(-c4ccc(/C=C/c5ccc(-n6nc7cc8ccc(S(=O)(=O)O)cc8cc7n6)cc5S(=O)(=O)O)c(S(=O)(=O)O)c4)nc3cc2c1`, the GI50 in test [1] is 16.3 µM; in test [2] it was 74 µM; in test [3], over 100 µM; in test [4], 34.1 µM; in test [5], over 100 µM; in [6], over 100 µM. In addition, the GI50 was 50.9 µM in test [7], over 100 µM in test [8], 73.8 µM in test [9] and 23.6 µM in test [10]. Also, the TGI in test [1], in test [2], in test [3], in test [4], in test [5] and in test [6] was over 100 µM throughout. For the same molecule, the TGI in test [7], in test [8], in [9] and in [10] was over 100 µM each time.

For `COc1cc(C(=O)/C=C/c2c(C(F)(F)F)nc3ccccn23)cc(OC)c1OC`, the GI50 in test [1] was 1.66 µM; in test [2] it was 2.11 µM; in [3], 1.76 µM; in test [4], 1.66 µM; in test [5], 1.72 µM; in test [6], 1.61 µM. Moreover, the GI50 in test [7] was 2.01 µM; in [8] it was 2.97 µM; in [9] it was 1.83 µM; in test [10] it was 1.26 µM. Moreover, the TGI in test [1] was found to be 3.77 µM; in [2], 4.36 µM; in test [3], 3.44 µM; in test [4], 3.32 µM; in [5], 3.42 µM; in test [6], 3.51 µM. Further, the TGI in test [7] was 13.4 µM; in test [8] it was 8.53 µM; in [9], 3.38 µM; in test [10], 3.21 µM.

For the molecule `C=CC[N+]1(CC)CCN=C1CCCCCCCCCCCCCCCCC` (configuration not stated), the GI50 in test [2] is 0.651 µM; in test [4], 0.935 µM; in test [5] it was 0.788 µM; in test [6], 0.659 µM; in [7], 0.429 µM; in test [8], 0.53 µM. The GI50 in test [9] was 0.241 µM; in [10], 0.294 µM. In addition, the TGI in [2] turned out to be 2.29 µM; in [4], 2.3 µM; in test [5], 2.11 µM; in test [6], 2.02 µM; in test [7] it was 1.46 µM; in test [8], 1.75 µM. Moreover, the values for the TGI in [9] and in [10] were 0.797 µM and 1.15 µM, respectively.

As to `C=CC(=O)N[C@@H](/C=C/C(=O)OCC)Cc1ccc(-c2cc(Cl)cc(Cl)c2)cc1`, the GI50 in [1] was 14.2 µM; in test [2], 14.8 µM; in [3] it was 10.8 µM; in [4], 4.6 µM; in test [5], 20.2 µM; in [6], 12.9 µM. Further, the values for the GI50 in test [7], in test [9] and in test [10] were 11.2 µM, 19.9 µM and 5.29 µM, respectively. Moreover, the TGI came to 35.6 µM in test [1]; 53.9 µM in test [2]; 70 µM in test [3]; 25.2 µM in test [4]; 91 µM in test [5]; 64.2 µM in [6]. In addition, the TGI in [7] was determined as 32.8 µM; in test [9], 57.6 µM; in test [10], 34.2 µM.

As for `N#Cc1cc2c(cc1Cl)Sc1nnc(Nc3cccc4ccccc34)n1S2(=O)=O`, the GI50 was 3.17 µM in [1]; 2.34 µM in test [2]; 6.43 µM in test [3]; 2.14 µM in test [4]; 16.9 µM in test [5]; 3.66 µM in test [6]. Moreover, the GI50 in test [7] was 13.8 µM; in test [8], 15.6 µM; in test [10], 3.98 µM. Besides, the TGI in test [1] worked out at 10.3 µM; in test [2], 4.52 µM; in test [3], 18.2 µM; in [4], 5.28 µM; in test [5] it was 45.4 µM; in test [6], 12.9 µM. In addition, the TGI in test [7] was found to be 33.8 µM; in test [8], 29.6 µM; in test [10], 14.2 µM.
